Series [1] has as its system Mtb H37Rv (SRI 1345). Put plainly: MIC broth microdilution, Mtb H37Rv. The series is classed as cell-based. The conditions noted are these: Mycobacterium tuberculosis, 168 h, read-out: MIC H37Rv. (In broth dilution the organism is exposed to a series of concentrations in liquid medium.)
Another series in a line: in vitro. The conditions noted are these: mouse.
The subject of series [2] is Mtb H37Rv (SRI 1345). Nature of the series: Low-oxygen recovery assay (LORA), non-replicating persistence. The series is classed as cell-based, Mycobacterium tuberculosis. To be noted: 7 days anaerobic then 7 days ambient, 37 °C.
Series [3] in a line: Drug cytotoxicity control plate assay (MTT cell proliferation). To be noted: mouse.
For series [4], the system named is Mtb H37Rv, INH-R, RMP-R and OFX-R Mtb. Nature of the series: MIC screening, all Mtb strains tested. The series is classed as cell-based, Mycobacterium tuberculosis. To be noted: range over H37Rv.
The subject of the next series is S. aureus. Also noted: method as in PMID 23811087. To be noted: S. aureus in vitro; cited from earlier work.
A short description of series [5]: Stock standard solution stability. The series is classed as physicochemical. To be noted: 100 μg/mL in acetonitrile, refrigerator (4 °C). As to the method:
Stock standard solutions of PH-189 and indapamide as internal standard were separately prepared by dissolving 10 mg of the compounds in 100 mL of acetonitrile to give stock concentrations of 100 μg/mL. Working solutions of PH-189 and internal standard were prepared by diluting the stock solutions with acetonitrile to obtain concentrations of 10 μg/mL and 90 μg/mL. Stock solutions were stable for at least 5 weeks when stored in a refrigerator (4 °C).

The format of series [6] is in vitro ADME. The conditions noted are these: 90 min, 50 μg/mL. As to the method:
Aliquots of 0.5 mL of plasma samples (calibration standards) were mixed with 200 μL aliquots of internal standard solution using appropriate concentration (10–90 μg/mL) for PH-189 concentrations. The samples were loaded unto solid phase extraction (SPE) cartridges on a vacuum 20 position extraction manifold (Waters). The cartridges were pre-conditioned with 1 mL of acetonitrile followed by 1 mL of water. The loaded cartridges were washed with 1 mL of acetonitrile and the analytes (PH-189 and internal standard) were eluted with acetonitrile into a 1.5 mL glass vials. The collected samples were filtered using Kinesis syringe membrane filters (Kinesis Ltd, St Neots, UK) (13 mm) and were used for injection and analysis. The PH-189/internal standard ratios were used to calculate calibration curve and to determine PH-189 concentration in human plasma after 90 min at 37 °C.
Accuracy and precision of the UHPLC method for PH-189 was evaluated by preparing six sets of PH-189 in blank human plasma within the concentration ranges of the calibration curve. Accuracy and precision were performed in triplicate using four concentration levels of 1, 10, 50, and 90 μg/mL. […] Freezer-stored samples were thawed, extracted, and analyzed as previously mentioned. […]

Series [7] concerns Mtb H37Rv (SRI 1345). Nature of the series: Minimal bactericidal concentration (MBC). The conditions noted are these: Mycobacterium tuberculosis, read-out: MBC H37Rv. The series is classed as cell-based.
Series [8] deals with intracellular (macrophage) Mtb H37Rv (SRI 1345) in J774 cells. Nature of the series: Intracellular (macrophage) drug screening assay. The series is classed as cell-based, Mycobacterium tuberculosis. The conditions noted are these: range at the three concentrations tested.
Setting [9] is: Mycobacterium tuberculosis, H37RV, 168 h, read-out: LORA, lowest concentration that visually inhibits growth.
Where [10] appears, read: MTT % Viability (High Conc.), high conc., same as in macrophage assay.
[11] abbreviates: MTT % Viability (Low Conc.), low conc., same as in macrophage assay.
Setting [12] is: MTT % Viability (Mid Conc.), mid conc., same as in macrophage assay.

Structures are written as SMILES. Values after ≈ are worked out from the molar mass of the structure shown.

In the case of `Cc1cn(CC2CN(c3ccc(N4CCN(C(=O)CNC(=O)c5ccc([N+](=O)[O-])o5)CC4)c(F)c3)C(=O)O2)nn1` (centres unmarked) [PH-145], in the series with Mtb H37Rv (SRI 1345) [1], the MIC was 0.5 µM (≈ 0.278 µg/mL). The viability in the series “in vitro” (MTT % Viability (High Conc.)) amounted to 75%; in “in vitro” (MTT % Viability (Low Conc.)), 87%; in “in vitro” (MTT % Viability (Mid Conc.)), 93%.
As to `CCOC(=O)CC(=O)NCC(=O)N1CCN(c2ccc(N3CC(Cn4cc(C)nn4)OC3=O)cc2F)CC1` (centres unmarked) [PH-150], the MIC was above 58 µM with Mtb H37Rv (SRI 1345) [2] (setting [9]) and 5.8 µM (≈ 3.08 µg/mL) in the series with Mtb H37Rv (SRI 1345) [1]. The values for the viability in the series “in vitro” (MTT % Viability (High Conc.)), in the series “in vitro” (MTT % Viability (Low Conc.)) and in “in vitro” (MTT % Viability (Mid Conc.)) were 62%, 78% and 82%, respectively.
`Cc1cn(CC2CN(c3ccc(N4CCN(C(=O)CN)CC4)c(F)c3)C(=O)O2)nn1` (centres unmarked) [PH-151]: the MIC is above 58 µM in the series with Mtb H37Rv (SRI 1345) [2] (setting [9]) and 5.8 µM (≈ 2.42 µg/mL) in the series with Mtb H37Rv (SRI 1345) [1]. For the same compound, the values for the viability in the series “in vitro” (MTT % Viability (High Conc.)), in the series “in vitro” (MTT % Viability (Low Conc.)) and in the series “in vitro” (MTT % Viability (Mid Conc.)) were 74%, 83% and 87%, respectively.
Take `CC(=O)NCC(=O)N1CCN(c2ccc(N3CC(Cn4ccnn4)OC3=O)cc2F)CC1` (centres unmarked) [PH-165]: the MIC in the series on Mtb H37Rv (SRI 1345) [2] (setting [9]) is above 58 µM; with Mtb H37Rv (SRI 1345) [1] it was 6.7 µM (≈ 2.98 µg/mL). Moreover, the viability in “in vitro” (MTT % Viability (High Conc.)) came out at 84%; in “in vitro” (MTT % Viability (Low Conc.)), 91%; in the series “in vitro” (MTT % Viability (Mid Conc.)) it was 87%.
Turning to `CCOC(=O)CC(=O)NCC(=O)N1CCN(c2ccc(N3CC(Cn4ccnn4)OC3=O)cc2F)CC1` (centres unmarked) [PH-169], the MIC in the series on Mtb H37Rv (SRI 1345) [1] came out at 2.9 µM (≈ 1.5 µg/mL). Moreover, the values for the viability in “in vitro” (MTT % Viability (High Conc.)), in “in vitro” (MTT % Viability (Low Conc.)) and in “in vitro” (MTT % Viability (Mid Conc.)) were 73%, 76% and 75%, respectively.
For the compound `NCC(=O)N1CCN(c2ccc(N3CC(Cn4ccnn4)OC3=O)cc2F)CC1` (centres unmarked) [PH-172], the MIC in the series with Mtb H37Rv (SRI 1345) [2] (setting [9]) was above 58 µM; in the series with Mtb H37Rv (SRI 1345) [2] (lowest concentration that visually inhibits growth, read-out: LORA), above 58 µM; in the series on Mtb H37Rv (SRI 1345) [1], 3.6 µM (≈ 1.45 µg/mL). For the same compound, the viability in the series “in vitro” (MTT % Viability (High Conc.)) turned out to be 71%; in “in vitro” (MTT % Viability (Low Conc.)), 87%; in the series “in vitro” (MTT % Viability (Mid Conc.)) it was 72%.
On to `Cc1cn(CC2CN(c3ccc(N4CCN(C(=O)CNC(=O)c5cc([N+](=O)[O-])cc([N+](=O)[O-])c5)CC4)c(F)c3)C(=O)O2)nn1` (centres unmarked) [PH-181], for which the viability came to 39% in series [3] (setting [10]), 91% in series [3] (setting [11]) and 88% in [3] (setting [12]). Moreover, the “MIC value range against all Mtb strains tested” value in series [4] is 0.052 to 3.3 µM. For the same compound, in the series on Mtb H37Rv (SRI 1345) [1], the MIC stood at 3.3 µM (≈ 2.02 µg/mL).
Regarding `Cc1cn(CC2CN(c3ccc(N4CCN(C(=O)CNC(=O)C(Cl)Cl)CC4)c(F)c3)C(=O)O2)nn1` (centres unmarked) [PH-182], the MIC in the series on Mtb H37Rv (SRI 1345) [2] (setting [9]) is 0.015 to 5.7 µM (≈ 0.00793 to 3.01 µg/mL); in the series on Mtb H37Rv (SRI 1345) [1] it was 1.9 µM (≈ 1 µg/mL). Besides, the figures for the viability in “in vitro” (MTT % Viability (High Conc.)), in the series “in vitro” (MTT % Viability (Low Conc.)) and in the series “in vitro” (MTT % Viability (Mid Conc.)) were 87%, 84% and 90%, respectively.
`Cc1cn(CC2CN(c3ccc(N4CCN(C(=O)CNC(=O)c5cccnc5)CC4)c(F)c3)C(=O)O2)nn1` (centres unmarked) [PH-185]: the MIC with Mtb H37Rv (SRI 1345) [1] was in the range of 5.7 to 11.5 µM (≈ 2.98 to 6.01 µg/mL). Also, the results for the viability in the series “in vitro” (MTT % Viability (High Conc.)), in “in vitro” (MTT % Viability (Low Conc.)) and in “in vitro” (MTT % Viability (Mid Conc.)) were 39%, 88% and 94%, respectively.
In the case of `O=C(NCC(=O)N1CCN(c2ccc(N3CC(Cn4ccnn4)OC3=O)cc2F)CC1)c1ccc([N+](=O)[O-])o1` (centres unmarked) [PH-189], the “MIC value in the presence of 50% human plasma” value in the series with S. aureus is given as “remained unchanged”. In [5], the “stock solutions stable for” value was “at least 5 weeks”. Further, the “average amount of PH-189 found in human plasma” value in series [6] was determined as 48.79 µg/mL. Moreover, in series [6], the “recovered from human plasma” value is “more than 90%”. Further, the MIC with Mtb H37Rv (SRI 1345) [1] turned out to be 0.5 µM (≈ 0.271 µg/mL). Further, the viability in the series “in vitro” (MTT % Viability (High Conc.)) was 86%; in “in vitro” (MTT % Viability (Low Conc.)), 98%; in the series “in vitro” (MTT % Viability (Mid Conc.)), 88%.
As for `O=C(NCC(=O)N1CCN(c2ccc(N3CC(Cn4ccnn4)OC3=O)cc2F)CC1)c1cc([N+](=O)[O-])cc([N+](=O)[O-])c1` (centres unmarked) [PH-193], the viability in series [3] (setting [10]) came to 74%; in series [3] (setting [11]), 100%; in [3] (setting [12]), 100%. For the same compound, the “MIC value range against all Mtb strains tested” value in series [4] lay within 0.052 to 3.3 µM. Moreover, in the series with Mtb H37Rv (SRI 1345) [1], the MIC came to 1.7 µM (≈ 1.02 µg/mL).
For `O=C(NCC(=O)N1CCN(c2ccc(N3CC(Cn4ccnn4)OC3=O)cc2F)CC1)c1cccnc1` (centres unmarked) [PH-195], the MIC in the series on Mtb H37Rv (SRI 1345) [1] turned out to be 3.9 µM (≈ 1.98 µg/mL). For the same compound, the viability worked out at 71% in the series “in vitro” (MTT % Viability (High Conc.)), 100% in “in vitro” (MTT % Viability (Low Conc.)) and 100% in “in vitro” (MTT % Viability (Mid Conc.)).
Regarding `CO[C@H]1/C=C/O[C@@]2(C)Oc3c(C)c(O)c4c(O)c(c(/C=N/N5CCN(C)CC5)c(O)c4c3C2=O)NC(=O)/C(C)=C\C=C\[C@H](C)[C@H](O)[C@@H](C)[C@@H](O)[C@@H](C)[C@H](OC(C)=O)[C@@H]1C` [RMP, Rifampicin, reference compound], the MBC in the series with Mtb H37Rv (SRI 1345) [7] was 1.56 µM (≈ 1.28 µg/mL). Besides, the viability in series [3] (uninfected J774 macrophages, MTT % Viability (High Conc.), high conc., same as in macrophage assay) was 84%; in [3] (uninfected J774 macrophages, MTT % Viability (Low Conc.), low conc., same as in macrophage assay), 92%; in [3] (uninfected J774 macrophages, MTT % Viability (Mid Conc.), mid conc., same as in macrophage assay), 85%; in series [3] (uninfected J774 macrophages, MTT percent cell viability, range, range at the three concentrations tested), 84 to 92%. For the same compound, the “Macrophage log reduction in Mtb, range” value in series [8] is reported as 1.62–2.43. The MIC amounted to 0.95 µM (≈ 0.782 µg/mL) in the series on Mtb H37Rv (SRI 1345) [2] (Mycobacterium tuberculosis, H37RV, 168 h, lowest concentration that visually inhibits growth, read-out: LORA) and 0.06 µM (≈ 0.0494 µg/mL) with Mtb H37Rv (SRI 1345) [1].

Broadly, the viability is a read-out of living cells in per cent, often relative to untreated cells. In general, MBC refers to the smallest concentration meeting the test's criterion for killing.

The values are drawn from article PMC5748531, “Antimycobacterial Activities of N-Substituted-Glycinyl 1H-1,2,3-Triazolyl Oxazolidinones and Analytical Method Development and Validation for a Representative Compound” (Scientia Pharmaceutica, 2017).
